US10544134B2, “4-substituted coumarin derivatives and preparation methods and uses thereof” (SI CHUAN UNIVERSITY, priority 2015, dated 2020)
Where two headings read alike, the source gives them in different places.

Legend:
Experiment in all cases: Tumor cell proliferation inhibitory activity test in vitro (MTT)
[1] = test system: colon carcinoma cell HCT116; type: cell-based, human; conditions: read-out: IC50 of compounds for tumor cells, Activity, HCT116
Text: (§1) Human non-small cell lung cancer cell line NCI-H460, human small cell lung cancer cell line NCI-H446, human hepatocellular carcinoma cell strain HepG2, human colon carcinoma cell strain HCT116, human prostate cancer PC-3, human melanoma A375, colon carcinoma cell HCT-8, breast cancer cell MCF-7, ovarian cancer cell A2780s, drug-resistant ovarian cancer cell A2780/T, drug-resistant colon cancer cell HCT-8/T and doxorubicin-resistant breast cancer cell MCF-7/ADR are obtained from American Type Culture Collection (ATCC) and are cultured and preserved by the cell bank of State Key Laboratory of Biotherapy of Sichuan University. Above tumor cells are routinely cultured in DMEM culture medium containing 10% fetal bovine serum, 100 U·mL-1 penicillin and 100 mg·L−1 streptomycin, and in an incubator at 37° C. and with saturated humidity and 5% CO2 concentration.
(§2) Fill diluted cell suspension in the 96-well plate with 1000-10000 cells per well and incubate it in CO2 incubator overnight.
(§3) Replace with new medium containing various concentrations of compounds to be tested for the test group and replace with fresh medium with equal volume for the control group, each group is arranged with 5 parallel wells and incubated in an incubator at 37° C. and with 5% CO2 concentration.
(§4) Discard the supernatant after 72 hours, add 200 μL freshly prepared serum-free medium containing 0.2 mg/mL MTT into each well, continue to incubate at 37° C. for 1-4 hours, then stop incubation, carefully remove the culture supernatant in the wells and add 200 uL DMSO (dimethyl sulfoxide), oscillate with a miniature ultrasonic oscillator for 15-20 minutes to make the crystal fully dissolved and mixed. Determine OD values using a microplate reader at 570 nm with a reference wavelength of 450 nm.
(§5) Draw curves based on the growth inhibition rate for tumor cells of the same sample with different concentrations to get dose-response curve, so as to calculate IC50. Repeat each test for 3 times, measure IC50 (μM) or nanomolor concentration (nM) of compounds in different tumor cells.

[2] = test system: hepatocellular carcinoma cell HEPG2; type: cell-based, human; conditions: read-out: IC50 of compounds for tumor cells, Activity, HEPG2
Text: as §1, §2, §3, §4, §5

melanoma A375 = type: cell-based, human; conditions: read-out: IC50 of compounds for tumor cells, Activity, A375
Text: as §1, §2, §3, §4, §5

[3] = test system: non-small cell lung cancer cell line NCI-H460; type: cell-based, human; conditions: read-out: IC50 of compounds for tumor cells, Activity, H460
Text: as §1, §2, §3, §4, §5

prostate cancer PC-3 = type: cell-based, human; conditions: 72 hours, read-out: IC50 of compounds for tumor cells, Activity, PC-3
Text: as §1, §2, §3, §4, §5

breast cancer cell MCF-7 = type: cell-based; conditions: read-out: IC50 of compounds for tumor cells, Activity, MCF-7
Text: as §1, §2, §3, §4, §5

[4] = Homo sapiens, HCT-116, 72 hours
[5] = Homo sapiens, NCI-H460, 72 hours

IC50 [1, 4] [nM] | IC50 ([2]; Homo sapiens, HepG2, 72 hours) [nM] | IC50 (melanoma A375; Homo sapiens, A-375, 72 hours) [nM] | IC50 [3, 5] [nM] | IC50 (prostate cancer PC-3; Homo sapiens) [nM] | IC50 (breast cancer cell MCF-7; Homo sapiens, MCF7, 72 hours) [nM] | IC50 ([1]; 72 hours) [nM] | IC50 ([2]; 72 hours) [nM] | IC50 (melanoma A375; 72 hours) [nM] | IC50 ([3]; 72 hours) [nM] | IC50 (prostate cancer PC-3) [nM] | IC50 (breast cancer cell MCF-7; 72 hours) [nM] | Compound
> 5000 | > 5000 | > 5000 | > 5000 | > 5000 | > 5000 | – | – | – | – | – | – | O=c1cc(-c2ccc(-c3ccc4c(c3)OCO4)s2)c2ccccc2o1 [COUM-31, 4-(5-(3,4-(methylenedioxy)benzene)thiophene-2-yl)-coumarin]
> 5000 | > 5000 | > 5000 | > 5000 | > 5000 | > 5000 | – | – | – | – | – | – | CCOC(=O)c1cccc(-c2ccc(-c3cc(=O)oc4ccccc34)s2)c1 [COUM-32]
> 5000 | > 5000 | > 5000 | > 5000 | > 5000 | > 5000 | – | – | – | – | – | – | COc1cccc(-c2ccc(-c3cc(=O)oc4cc(OC)ccc34)s2)c1 [COUM-33, 4-(5-(3-methoxybenzene)thiophene-2-yl)-7-methoxyl-coumarin]
> 5000 | > 5000 | > 5000 | > 5000 | > 5000 | > 5000 | – | – | – | – | – | – | COc1ccc2c(-c3ccc(-c4ccccc4Cl)s3)cc(=O)oc2c1 [COUM-34, 4-(5-(2-chlorobenzene)thiophene-2-yl)-7-methoxyl-coumarin]
> 5000 | > 5000 | > 5000 | > 5000 | > 5000 | > 5000 | – | – | – | – | – | – | COc1ccc2c(-c3ccc(-c4cccc(Cl)c4)s3)cc(=O)oc2c1 [COUM-35, 4-(5-(3-chlorobenzene)thiophene-2-yl)-7-methoxyl-coumarin]
> 5000 | > 5000 | > 5000 | > 5000 | > 5000 | > 5000 | – | – | – | – | – | – | COc1ccc2c(c1)CCCN2c1cc(=O)oc2ccccc12 [COUM-36, 4-(6-methoxy-3,4-dihydroquinoline-1(2H)-yl) coumarin]
100 to 5000 | 100 to 5000 | 100 to 5000 | 100 to 5000 | 100 to 5000 | 100 to 5000 | – | – | – | – | – | – | COc1ccc2c(c1)CN(c1cc(=O)oc3ccccc13)CCC2 [COUM-37, 4-(8-methoxy-1,3,4,5-tetrahydro-2H-benzoazepine-2-yl) Coumarin]
100 to 5000 | 100 to 5000 | 100 to 5000 | 100 to 5000 | 100 to 5000 | 100 to 5000 | – | – | – | – | – | – | COc1ccc2c(c1)CCCN2c1cc(=O)oc2cc(OC)ccc12 [COUM-38, 4-(6-methoxy-3,4-dihydroquinoline-1(211)-yl)-7 methoxycoumarin]
100 to 5000 | 100 to 5000 | 100 to 5000 | 100 to 5000 | 100 to 5000 | 100 to 5000 | – | – | – | – | – | – | COc1ccc2c(c1)CN(c1cc(=O)oc3cc(OC)ccc13)CCC2 [COUM-39, 4-(8-methoxy-1,3,4,5-tetrahydro-2H-benzoazepine-2-yl)-7-methoxycoumarin]
10 to 100 | 10 to 100 | 10 to 100 | 10 to 100 | 10 to 100 | 10 to 100 | – | – | – | – | – | – | COc1ccc(N(C)c2cc(=O)oc3cc(OC)ccc23)cc1 [COUM-40, 4-(N-methyl-N-(4-methoxybenzene)-amino)-7-methoxycoumarin]
10 to 100 | 10 to 100 | 10 to 100 | 10 to 100 | 10 to 100 | 10 to 100 | – | – | – | – | – | – | CCN(CC)c1ccc2c(N(C)c3ccc(OC)cc3)cc(=O)oc2c1 [COUM-41, 4-(N-methyl-N-(4-methoxybenzene)-amino)-7-diethylaminocoumarin]
10 to 100 | 10 to 100 | 10 to 100 | 10 to 100 | 10 to 100 | 10 to 100 | – | – | – | – | – | – | COc1ccc(N(C)c2cc(=O)oc3ccccc23)cc1 [COUM-43, 4-(N-methyl-N-(4-methoxybenzene)-amino) coumarin]
10 to 100 | 10 to 100 | 10 to 100 | 10 to 100 | 10 to 100 | 10 to 100 | – | – | – | – | – | – | CCOC(=O)COc1cc(N(C)c2cc(=O)oc3ccccc23)ccc1OC [COUM-45, 4-(N-methyl-N-(4-methoxy-3-(2-ethoxy-2-carbonylethoxy)-benzene)-amino) coumarin]
– | – | – | – | – | – | 100 to 5000 | 100 to 5000 | 100 to 5000 | 100 to 5000 | 100 to 5000 | 100 to 5000 | COc1ccc(N(C)c2cc(=O)oc3ccccc23)cc1OCCN1CCOCC1 [COUM-49, 4-(N-methyl-N-(4-methoxy-3-(2-morpholinoethoxy)-benzene)-amino) Coumarin]
– | – | – | – | – | – | 10 to 100 | 10 to 100 | 10 to 100 | 10 to 100 | 10 to 100 | 10 to 100 | COc1ccc(N(C)c2cc(=O)oc3ccccc23)cc1OCCN1CCSCC1 [COUM-50, 4-(N-methyl-N-(4-methoxy-3-(2-thiomorpholinoethoxy)-benzene)-amino) Coumarin]
– | – | – | – | – | – | > 5000 | > 5000 | > 5000 | > 5000 | > 5000 | > 5000 | COc1ccc(N(C)c2cc(=O)oc3ccccc23)cc1OCCN1CCCCC1 [COUM-51, 4-(N-methyl-N-(4-methoxy-3-(2-piperidinoethoxy)-benzene)-amino) Coumarin]
– | – | – | – | – | – | 100 to 5000 | 100 to 5000 | 100 to 5000 | 100 to 5000 | 100 to 5000 | 100 to 5000 | COc1ccc(N(C)c2cc(=O)oc3ccccc23)cc1OS(=O)(=O)Cc1ccc(C)cc1 [COUM-55, 4-(N-methyl-N-(4-methoxy-3-(4-methylbenzene) methanesulfonate-benzene)-amino) Coumarin]
100 to 5000 | 100 to 5000 | 100 to 5000 | 100 to 5000 | 100 to 5000 | 100 to 5000 | – | – | – | – | – | – | COc1ccc(N(C)c2cc(=O)oc3ccccc23)cc1OC(=O)C(CCSC)NC(=O)OC(C)(C)C (stereo not drawn) [COUM-86, 4-(N-methyl-N-(4-methoxy-3-(Boc-methionine)benzene)amino) Coumarin]
> 5000 | > 5000 | > 5000 | > 5000 | > 5000 | > 5000 | – | – | – | – | – | – | COC(=O)CCCCCCCCCCOc1cc(N(C)c2cc(=O)oc3ccccc23)ccc1OC [COUM-94, 4-(N-methyl-N-(4-methoxy-3-(1-methyl ester-decane-oxy)phenyl)-amino) Coumarin]

Compound | IC50 [1, 4] [nM] | IC50 ([2]; Homo sapiens, HepG2, 72 hours) [nM] | IC50 (melanoma A375; Homo sapiens, A-375, 72 hours) [nM] | IC50 [3, 5] [nM] | IC50 (prostate cancer PC-3; Homo sapiens) [nM] | IC50 (breast cancer cell MCF-7; Homo sapiens, MCF7, 72 hours) [nM] | IC50 ([1]; 72 hours) [nM] | IC50 ([2]; 72 hours) [nM] | IC50 (melanoma A375; 72 hours) [nM] | IC50 ([3]; 72 hours) [nM] | IC50 (prostate cancer PC-3) [nM] | IC50 (breast cancer cell MCF-7; 72 hours) [nM]
COc1ccc2c(N(C)c3cc(OC)c(OC)c(OC)c3)cc(=O)oc2c1 [COUM-44] | 10 to 100 | 10 to 100 | 10 to 100 | 10 to 100 | 10 to 100 | 10 to 100 | – | – | – | – | – | –
CCOc1cc(N(C)c2cc(=O)oc3ccccc23)ccc1OC [COUM-58, 4-(N-methyl-N-(4-methoxy-3-ethoxy-benzene)-amino) Coumarin] | – | – | – | – | – | – | > 5000 | > 5000 | > 5000 | > 5000 | > 5000 | > 5000
COc1ccc(N(C)c2cc(=O)oc3ccccc23)cc1OC(=O)CCCl [COUM-60, 4-(N-methyl-N-(4-methoxy-3-(2-chloroethylcarbonyloxy)-benzene)-amino) Coumarin] | – | – | – | – | – | – | 100 to 5000 | 100 to 5000 | 100 to 5000 | 100 to 5000 | 100 to 5000 | 100 to 5000
